Results on six compounds are retold here after patent US12303508B2, “Combinatory treatment strategies of cancer based on RNA polymerase I inhibition” (THE JOHNS HOPKINS UNIVERSITY, priority 2016, dated 2025).

Test [1] concerns MR49F enzalutamide-resistant prostate cancer cells. As to the kind of experiment: Cell viability (CellTiter-Blue) with Chou-Talalay combination index, MR49F. The class given is cell-based. The following applies: in combination with BMH-21, constant concentrations, 48 h, CI<1 synergism. On the procedure: (§1) Cell viability was measured using Cell TiterBlue, and Chou-Talalay Combination Index analysis was performed. CI<1 denotes synergism. Effect denotes the combinatory drug activity where 1 represents 100% kill.
(§2) Cells were maintained at 37° C. in a humidified atmosphere containing 5% CO2. […] Effect denotes the combinatory drug activity where 1 represents 100% kill.
Background: Alamar Blue is a resazurin reagent that responds to reducing activity.

Test [2] concerns MR49F cells. As to the kind of experiment: Cleaved caspase-3 and DNA staining, MR49F. It is filed as cell-based. The following applies: for massive apoptotic response, single treatment: either treatment alone. An excerpt: (§3) The inset bars represent sub-G1 cells. (B) The percentage of sub-G1 cells from A is plotted over time. (C) Staining of the cells for the apoptosis marker caspase-3. Immunofluorescence and Epifluorescence Microscopy. Cells grown on coverslips were fixed in 3.5% paraformaldehyde, permeabilized with 0.5% NP-40 and blocked with 3% BSA. Cells were stained for LC3-II and cleaved caspase-3 (Cell Signaling). Alexa 488-conjugated secondary antibodies were from Invitrogen. DNA was counterstained with DAPI (Invitrogen). Images were captured using Axioplan2 fluorescence microscope (Zeiss) equipped with AxioCam HRc CCD-camera and AxioVision 4.5 software using EC Plan-Neofluar 20× or 40× objectives (Zeiss).

Test [3] deals with LNCaP cells. Briefly: Cleaved caspase-3 and DNA staining, LNCaP. It is filed as cell-based. The following applies: for massive apoptotic response, single treatment: either treatment alone.
Source text: as §3

In test [4] the test system is LNCaP prostate cancer cells. Briefly: Cell viability (CellTiter-Blue) with Chou-Talalay combination index, LNCaP. The class given is cell-based. The conditions noted are these: in combination with BMH-21, LNCaP cells, 48 h. How it is done:
Cell viability was measured using Cell TiterBlue, and the mean of triplicate samples is shown. (B) Chou-Talalay combination index (CI) analysis was used to determine the drug interactions (blue curve). CI<1 denotes synergism. Red bar, C=1 additive effect. Fraction dead cells denotes the combinatory drug activity where 1 represents 100% kill.
(§4) Cells and Viability Assay. A375 melanoma and LNCaP prostate cancer cells were from American Type Culture Collection. HCT116 p53+/+ and −/− cells were from Dr. F. Bunz. MR49F cells were from Dr. M. Gleave. Cells were maintained at 37° C. in a humidified atmosphere containing 5% CO2. Cells were plated in 96-well plates at a density of 3,000 cells/well in triplicate and incubated for 48 h with the compounds. Viability was determined using CellTiter-Blue Cell Viability Assay (Promega) according to manufacturer's instructions. Chou-Talaley algorithm (Compusyn) was used to define the combination index (CI) where CI<1 denotes synergism, CI>1 denotes antagonism and CI=1 is additive. Effect denotes the combinatory drug activity where 1 represents 100% kill.

For test [5], the system named is A375 human melanoma cells. As to the kind of experiment: Cell viability (CellTiter-Blue) with Chou-Talalay combination index, A375. It is filed as cell-based. The conditions noted are these: in combination with BMH-21, constant concentrations, 48 h, CI<1 synergism, CI>1 antagonism. How it is done:
as §2

The test system of test [6] is HCT116 p53−/− colon carcinoma cells. Briefly: Cell viability (CellTiter-Blue) with Chou-Talalay combination index, HCT116 p53-/-. The class given is cell-based. The following applies: in combination with BMH-21, HCT116 p53−/− cells, 48 h. How it is done: (§5) Data represent N=2 biological assays each conducted in triplicate. […] Chou-Talalay plots are shown. Data represents N=2 biological assays each conducted in triplicate.
as §4
(§6) The inventors tested these combinations in three different cell lines (A375 melanoma cells, HCT116 p53+/+ and HCT116 p53−/− colon carcinoma cells).

In test [7] the test system is HCT116 p53+/+ colon carcinoma cells. As to the kind of experiment: Cell viability (CellTiter-Blue) with Chou-Talalay combination index, HCT116 p53+/+. The following applies: in combination with BMH-21, HCT116 p53+/+ cells, 48 h. It is filed as cell-based. How it is done:
as §5, §4, §6

In test [8] the test system is LC3-II in MR49F cells. Briefly: LC3-II western blotting and immunofluorescence staining. The class given is cell-based. The conditions noted are these: 24 h. On the procedure: as §1
Immunofluorescence and Epifluorescence Microscopy. Cells grown on coverslips were fixed in 3.5% paraformaldehyde, permeabilized with 0.5% NP-40 and blocked with 3% BSA. Cells were stained for LC3-II and cleaved caspase-3 (Cell Signaling). Alexa 488-conjugated secondary antibodies were from Invitrogen. DNA was counterstained with DAPI (Invitrogen). Images were captured using Axioplan2 fluorescence microscope (Zeiss) equipped with AxioCam HRc CCD-camera and AxioVision 4.5 software using EC Plan-Neofluar 20× or 40× objectives (Zeiss).
Immunoblotting. Cells were lysed in 0.5% NP-40 buffer (25 mM Tris-HCl, pH 8.0, 120 mM NaCl, 0.5% NP-40, 4 mM NaF, 100 μM Na3VO4, 100 KIU/ml aprotinin, 10 μg/ml leupeptin) or RIPA lysis buffer. Proteins were separated on SDS-PAGE, blotted, probed for respective proteins and detected using ECL (Amersham). The primary antibodies used for detection were LC3-II and cleaved caspase-3 (Cell Signaling). HRP-conjugated secondary antibodies were from DAKO or Santa Cruz Biotechnology.

Test [9] deals with tumor xenograft. The following applies: previously demonstrated; cited from earlier work.
Test [10] relates to RPA194. The conditions noted are these: previously demonstrated; cited from earlier work.
Test [11] concerns NCI60 cancer cell lines. The conditions noted are these: previously demonstrated; cited from earlier work.
[12] abbreviates: BMH-21 plus Avasimibe combination.

In the case of `CC(C)c1cc(C(C)C)c(CC(=O)NS(=O)(=O)Oc2c(C(C)C)cccc2C(C)C)c(C(C)C)c1` [Avasimibe], the “drug interaction with BMH-21 (Chou-Talalay combination index on cell viability)” value in test [1] is “prominent synergistic activities”. Also, the “apoptosis by cleaved caspase-3 and DNA staining, combination” value in test [2] (setting [12]) and in test [3] (setting [12]) was “prominent cell apoptosis” in each case. Besides, the “massive apoptotic response, single treatment” value in test [2] and in test [3] was “not observed” each time. In addition, in test [4], the “drug interaction with BMH-21 (cell viability, Chou-Talalay combination index)” value is given as “synergistic cancer cell death”.
Regarding Bafilomycin, the “drug interaction with BMH-21 (Chou-Talalay combination index on cell viability)” value in [1] is reported as “synergistic cell death”.
Regarding `Cn1ncnc1[C@H]1c2n[nH]c(=O)c3cc(F)cc(c23)N[C@@H]1c1ccc(F)cc1` [BMN-673], the “drug interaction with BMH-21 (Chou-Talalay combination index on cell viability)” value in test [5], in test [6] and in [7] was “synergistically” throughout.
Consider `CCN(CC)CCCC(C)Nc1ccnc2cc(Cl)ccc12` (centres unmarked) [chloroquine], for which the “number of LC3-II puncta” value in test [8] (co-treatment with BMH-21 (1 μM)) was “significant increase”. Besides, the “expression of LC3-II (marker for autophagy inhibition)” value in test [8] (combination with BMH-21 (1 μM), western blotting and immunofluorescence) is recorded as “increased”.
Take `CN(C)CCNC(=O)c1cccn2c(=O)c3cc4ccccc4cc3nc12` [BMH-21, 12H-Benzo[g]pyrido[2,1-b]quinazoline-4-carboxamide, N-[2(dimethylamino)ethyl]-12-oxo]: the “massive apoptotic response, single treatment” value in test [2] and in test [3] was “not observed” throughout. Further, the “tumor burden in mouse xenograft assays” value in test [9] is “reduced tumor burden”. Further, the “degradation of RPA194” value in test [10] was “causes proteasome-mediated degradation of RPA194”. Besides, in test [11], the “anticancer activity in NCI60 cancer cell lines” value is “broad and potent anticancer activity”.
With `O=C(c1cc(Cc2n[nH]c(=O)c3ccccc23)ccc1F)N1CCN(C(=O)C2CC2)CC1` [olaparib, 4-[[3-[4-(cyclopropanecarbonyl)piperazine-1-carbonyl]-4-fluorophenyl]methyl]-2H-phthalazin-1-one], the “drug interaction with BMH-21 (Chou-Talalay combination index on cell viability)” value in test [5], in test [6] and in test [7] was “synergistically” in each case.
